The assay concerns the target agonist-induced platelet aggregation (Homo sapiens, UniProt P05106+P08514). The assay can be described thus: Platelet Aggregation Assay. Format: cell-based. Conditions: human PRP; agonist-induced aggregation. How it is done:
Blood was collected into 10 ml citrated Vacutainer tubes.

Starred links: 1 amine or outer side, 2 acyl side, 3 side chain; linkers in the order of their positions; H or OH if unused. Non-standard residues stand in square brackets, D forms with d. Residues, ends and D or L forms follow the SMILES beside them. NMePhe(4-CH2NH2) = CN[C@@H](Cc1ccc(CN)cc1)C(=O)O; X5 = O=C(c1ccc(I)c(CN[*:1])c1)[*:2]; X4 = O=C(c1cc(CN[*:1])ccc1Cl)[*:2]; NMeR = CN[C@@H](CCCNC(=N)N)C(=O)O; X3 = Cc1ccc(CN[*:1])cc1C(=O)[*:2]; 3Amb = NCc1cccc(C(=O)O)c1; dAbu = CC[C@@H](N)C(=O)O; βAla = NCCC(=O)O A value given as a limit tells only on which side of the number the result lay.

One may read the IC50 as the midpoint of a concentration-inhibition curve.

Chain of agonist-induced platelet aggregation (P08514 32-1039): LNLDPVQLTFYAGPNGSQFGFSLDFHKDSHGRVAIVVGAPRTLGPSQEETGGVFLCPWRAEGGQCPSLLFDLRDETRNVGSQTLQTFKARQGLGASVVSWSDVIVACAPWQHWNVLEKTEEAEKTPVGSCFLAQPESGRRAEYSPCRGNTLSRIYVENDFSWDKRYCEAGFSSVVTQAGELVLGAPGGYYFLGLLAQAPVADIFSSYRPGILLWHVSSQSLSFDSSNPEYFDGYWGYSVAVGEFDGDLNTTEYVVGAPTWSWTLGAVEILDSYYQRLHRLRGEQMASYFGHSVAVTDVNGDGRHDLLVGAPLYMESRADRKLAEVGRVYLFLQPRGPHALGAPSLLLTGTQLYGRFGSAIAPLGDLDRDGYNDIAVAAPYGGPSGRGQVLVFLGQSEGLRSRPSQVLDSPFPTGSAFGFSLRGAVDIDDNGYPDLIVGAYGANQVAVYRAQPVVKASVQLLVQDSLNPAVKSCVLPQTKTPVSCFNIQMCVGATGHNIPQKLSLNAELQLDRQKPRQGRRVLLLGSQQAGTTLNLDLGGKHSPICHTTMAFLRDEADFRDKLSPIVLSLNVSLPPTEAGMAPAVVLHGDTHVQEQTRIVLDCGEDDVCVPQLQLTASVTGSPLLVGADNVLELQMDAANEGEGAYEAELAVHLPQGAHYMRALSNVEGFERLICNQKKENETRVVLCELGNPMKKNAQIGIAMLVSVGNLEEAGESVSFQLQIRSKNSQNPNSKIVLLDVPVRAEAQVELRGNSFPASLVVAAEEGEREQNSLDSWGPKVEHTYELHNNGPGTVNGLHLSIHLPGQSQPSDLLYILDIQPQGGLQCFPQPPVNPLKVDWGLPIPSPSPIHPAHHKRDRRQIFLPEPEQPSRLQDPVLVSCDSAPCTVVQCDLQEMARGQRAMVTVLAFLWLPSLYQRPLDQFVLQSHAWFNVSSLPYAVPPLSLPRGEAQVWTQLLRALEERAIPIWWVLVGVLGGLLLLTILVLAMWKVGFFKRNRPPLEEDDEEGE
Chain of agonist-induced platelet aggregation (P05106 27-788): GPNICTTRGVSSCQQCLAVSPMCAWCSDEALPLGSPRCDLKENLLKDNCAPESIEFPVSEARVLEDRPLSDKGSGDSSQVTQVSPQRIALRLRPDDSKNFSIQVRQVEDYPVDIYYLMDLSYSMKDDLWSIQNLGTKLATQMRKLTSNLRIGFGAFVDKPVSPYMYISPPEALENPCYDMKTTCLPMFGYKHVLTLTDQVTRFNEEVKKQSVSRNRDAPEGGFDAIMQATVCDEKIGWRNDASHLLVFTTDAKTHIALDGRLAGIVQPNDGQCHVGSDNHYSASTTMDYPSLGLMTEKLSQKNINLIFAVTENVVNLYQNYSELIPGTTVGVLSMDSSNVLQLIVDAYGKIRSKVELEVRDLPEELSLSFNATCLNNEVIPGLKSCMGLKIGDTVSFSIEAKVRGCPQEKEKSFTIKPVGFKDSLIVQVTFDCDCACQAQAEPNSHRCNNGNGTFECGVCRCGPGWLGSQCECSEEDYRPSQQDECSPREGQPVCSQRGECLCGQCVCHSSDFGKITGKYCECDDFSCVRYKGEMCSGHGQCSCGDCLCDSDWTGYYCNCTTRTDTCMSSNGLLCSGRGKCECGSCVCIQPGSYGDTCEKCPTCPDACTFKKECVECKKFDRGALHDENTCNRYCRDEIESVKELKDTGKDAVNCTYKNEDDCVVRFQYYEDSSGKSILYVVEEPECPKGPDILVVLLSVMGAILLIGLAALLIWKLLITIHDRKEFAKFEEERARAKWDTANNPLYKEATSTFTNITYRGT

Take `CC[C@@H](C)[C@H]1NC(=O)c2cccc(c2)CNC(=O)[C@H](CC(=O)O)NC(=O)CNC(=O)[C@H](CCCNC(=N)N)N(C)C1=O` [Example 13r, cyclo-(D-Ile-NMeArg-Gly-Asp-Mamb)] (cyclo([NMeR]GD[3Amb][dI])): the concentration for half-maximal inhibition (IC50) is less than 1000 nM.

Take `CC(C)C[C@H]1NC(=O)c2cccc(c2)CNC(=O)[C@H](CC(=O)O)NC(=O)CNC(=O)[C@H](CCCNC(=N)N)N(C)C1=O` [Example 5, cyclo-(D-Leu-NMeArg-Gly-Asp-Mamb)] (cyclo([NMeR]GD[3Amb][dL])): the IC50 is less than 1000 nM.

The compound `C[C@H]1NC(=O)c2cccc(c2)CNC(=O)[C@H](CC(=O)O)NC(=O)CNC(=O)[C@H](CCCNC(=N)N)NC1=O` [Example 30, cyclo-(D-Ala-Arg-Gly-Asp-Mamb)] (cyclo(RGD[3Amb][dA])) had an IC50 of 1000 to 10000 nM.

`CC(C)[C@H]1NC(=O)Cc2cccc(c2)NC(=O)[C@H](CC(=O)O)NC(=O)CNC(=O)[C@H](CCCNC(=N)N)N(C)C1=O` [Example 92, cyclo-(D-Val-NMeArg-Gly-Asp-3-aminophenylacetic acid)] came in with a 50% inhibitory concentration (IC50) of less than 1000 nM.

On to `CN1C(=O)[C@@H](Cc2ccccc2)NC(=O)c2cccc(c2)CNC(=O)[C@H](CC(=O)O)NC(=O)CNC(=O)[C@@H]1CCCNC(=N)N` [Example 12, cyclo-(D-Phe-NMeArg-Gly-Asp-Mamb)] (cyclo([NMeR]GD[3Amb][dF])), for which the IC50 was less than 1000 nM.

For the compound `CC[C@H]1NC(=O)c2ccc(I)c(c2)CNC(=O)[C@H](CC(=O)O)NC(=O)CNC(=O)[C@H](CCCNC(=N)N)N(C)C1=O` [Example 89d, cyclo-(D-Abu-NMeArg-Gly-Asp-iodo-Mamb)] (cyclo([NMeR]GD[X5][dAbu])), the IC50 is less than 1000 nM.

Consider `CN1C(=O)[C@@H](Cc2ccc(O)cc2)NC(=O)c2cccc(c2)CNC(=O)[C@H](CC(=O)O)NC(=O)CNC(=O)[C@@H]1CCCNC(=N)N` [Example 28f, cyclo-(D-Tyr-NMeArg-Gly-Asp-Mamb)] (cyclo([NMeR]GD[3Amb][dY])), for which the concentration for half-maximal inhibition (IC50) is less than 1000 nM.

For `CC(C)[C@H]1NC(=O)c2cccc(c2)CNC(=O)[C@H](CC(=O)O)NC(=O)CNC(=O)[C@H](CCCNC(=N)N)NC1=O` [Example 32, cyclo-(D-Val-Arg-Gly-Asp-Mamb)], the IC50 was in the range of 1000 to 10000 nM.

`CN1C(=O)[C@@H](CCCCN)NC(=O)c2cccc(c2)CNC(=O)[C@H](CC(=O)O)NC(=O)CNC(=O)[C@@H]1CCCNC(=N)N` [Example 13f, cyclo-(D-Lys-NMeArg-Gly-Asp-Mamb)] (cyclo([NMeR]GD[3Amb][dK])): the IC50 is less than 1000 nM.

Turning to `N=C(N)NCCC[C@@H]1NC(=O)[C@@H](Cc2ccccc2)NC(=O)c2cccc(c2)CNC(=O)[C@H](CC(=O)O)NC(=O)CNC1=O` [Example 36, cyclo-(D-Phe-Arg-Gly-Asp-Mamb)] (cyclo(RGD[3Amb][dF])), the 50% inhibitory concentration (IC50) was 10000 to 100000 nM.

As to `CN1C(=O)[C@H]2CCCN2C(=O)c2cccc(c2)CNC(=O)[C@H](CC(=O)O)NC(=O)CNC(=O)[C@@H]1CCCNC(=N)N` [Example 25, cyclo-(D-Pro-NMeArg-Gly-Asp-Mamb)] (cyclo([NMeR]GD[3Amb][dP])), the IC50 is less than 1000 nM.

Compound `CC(C)[C@H]1NC(=O)c2cc(ccc2Cl)CNC(=O)[C@H](CC(=O)O)NC(=O)CNC(=O)[C@H](CCCNC(=N)N)N(C)C1=O` [Example 97, cyclo-(D-Val-NMeArg-Gly-Asp-3-aminomethyl-6-chlorobenzoic acid)] returned an IC50 of less than 1000 nM.

With `CC(C)[C@H]1NC(=O)c2ccc3c(c2)C(CCC3)NC(=O)[C@H](CC(=O)O)NC(=O)CNC(=O)[C@H](CCCNC(=N)N)N(C)C1=O` (single isomer, unassigned) [Example 89a, cyclo-(D-Val-NMeArg-Gly-Asp-aminotetralincarboxylic acid)], the IC50 was less than 1000 nM.

Consider `CC[C@H]1NC(=O)c2cc(ccc2C)CNC(=O)[C@H](CC(=O)O)NC(=O)CNC(=O)[C@H](CCCNC(=N)N)N(C)C1=O` [Example 100c, cyclo-(D-Abu-NMeArg-Gly-Asp-3-aminomethyl-6-methylbenzoic acid)] (cyclo([NMeR]GD[X3][dAbu])), for which the half-maximal inhibitory concentration (IC50) was less than 1000 nM.

In turn, `C[C@H]1NC(=O)c2cccc(c2)CNC(=O)[C@H](CC(=O)O)NC(=O)CNC(=O)[C@H](CCCNC(=N)N)N(C)C1=O` [Example 2, cyclo-(D-Ala-NMeArg-Gly-Asp-Mamb)] (cyclo([NMeR]GD[3Amb][dA])) showed a half-maximal inhibitory concentration (IC50) of less than 1000 nM.

Turning to `CC(C)[C@H]1NC(=O)c2cccc(c2)CNC(=O)[C@H](CC(=O)O)NC(=O)[C@H](C)NC(=O)[C@H](CCCNC(=N)N)N(C)C1=O` [Example 58c, cyclo-(D-Val-NMeArg-L-Ala-Asp-Mamb)] (cyclo([3Amb][dV][NMeR]AD)), the IC50 was 10000 to 100000 nM.

The compound `CC[C@H]1NC(=O)c2cc(ccc2Cl)CNC(=O)[C@H](CC(=O)O)NC(=O)CNC(=O)[C@H](CCCNC(=N)N)N(C)C1=O` [Example 100a, cyclo-(D-Abu-NMeArg-Gly-Asp-3-aminomethyl-6-chlorobenzoic acid)] (cyclo([NMeR]GD[X4][dAbu])) yielded a half-inhibitory concentration (IC50) of less than 1000 nM.

Regarding `CC(C)[C@H]1NC(=O)c2cccc(c2)CNC(=O)C(C)(CC(=O)O)NC(=O)CNC(=O)[C@H](CCCNC(=N)N)N(C)C1=O` (single isomer, unassigned) [Example 63a, cyclo-(D-Val-NMeArg-Gly-α-MeAsp-Mamb)], the IC50 was 10000 to 100000 nM.

On to `CC(C)[C@H]1NC(=O)c2ccccc2CNC(=O)[C@H](CC(=O)O)NC(=O)CNC(=O)[C@H](CCCNC(=N)N)N(C)C1=O` [Example 91, cyclo-(D-Val-NMeArg-Gly-Asp-2-aminomethylbenzoic acid)], for which the IC50 was less than 1000 nM.

`CC(C)[C@H]1NC(=O)c2cccc(c2)CNC(=O)[C@@H](CC(=O)O)NC(=O)CNC(=O)[C@H](CCCNC(=N)N)N(C)C1=O` [Example 64c, cyclo-(D-Val-NMeArg-Gly-D-Asp-Mamb)] showed a 50% inhibitory concentration (IC50) of 1000 to 10000 nM.

`CN1C(=O)CCNC(=O)c2cccc(c2)CNC(=O)[C@H](CC(=O)O)NC(=O)CNC(=O)[C@@H]1CCCNC(=N)N` [Example 28c, cyclo-(b-Ala-NMeArg-Gly-Asp-Mamb)] (cyclo([NMeR]GD[3Amb][βAla])): the IC50 was less than 1000 nM.

The compound `CN1C(=O)CNC(=O)c2cccc(c2)CNC(=O)[C@H](CC(=O)O)NC(=O)CNC(=O)[C@@H]1CCCNC(=N)N` [Example 1, cyclo-(Gly-NMeArg-Gly-Asp-Mamb)] (cyclo([NMeR]GD[3Amb]G)) showed an IC50 of less than 1000 nM.

Regarding `CC(C)[C@H]1NC(=O)c2cccc(c2)CNC(=O)C(C)(CC(=O)O)NC(=O)CNC(=O)[C@H](CCCNC(=N)N)N(C)C1=O` (single isomer, unassigned) [Example 63, cyclo-(D-Val-NMeArg-Gly-α-MeAsp-Mamb)], the IC50 was 1000 to 10000 nM.

For `N=C(N)NCCC[C@@H]1NC(=O)CNC(=O)c2cccc(c2)CNC(=O)[C@H](CC(=O)O)NC(=O)CNC1=O` [Example 29, cyclo-(Gly-Arg-Gly-Asp-Mamb)] (cyclo(RGD[3Amb]G)), the half-maximal inhibitory concentration (IC50) lay in the range of 1000 to 10000 nM.

In turn, `CC(C)[C@H]1NC(=O)c2cccc(c2)CNC(=O)[C@H](CC(=O)O)NC(=O)CNC(=O)[C@H](Cc2ccc(CN)cc2)N(C)C1=O` [Example 40, cyclo-(D-Val-NMeAmf-Gly-Asp-Mamb)] (cyclo([dV][NMePhe(4-CH2NH2)]GD[3Amb])) came in with an IC50 of less than 1000 nM.

Regarding `CC(C)[C@H]1NC(=O)c2cccc(c2)CNC(=O)[C@H](CC(=O)O)NC(=O)CNC(=O)[C@@H](CCCNC(=N)N)N(C)C1=O` [Example 4b, cyclo-(D-Val-D-NMeArg-Gly-Asp-Mamb)], the 50% inhibitory concentration (IC50) is 1000 to 10000 nM.

Source of the values: patent US5635477A, “Cyclic compounds useful as inhibitors of platelet glycoprotein IIB/IIIA” (The DuPont Merck Pharmaceutical Company, priority 1995, dated 1997).
